Where “and” joins values, the source holds several entries; their conditions need not be identical. Equal values may be shown once. Read-outs that look alike come from different tables or passages of the source. Square brackets hold non-standard residues; d marks the D form. Ends that are not written are not given here. Peptide text beside a SMILES is read from it. pY = N[C@@H](Cc1ccc(OP(=O)(O)O)cc1)C(=O)O
Legend:
DLAR D1D2 = biological target: T1, DLAR D1D2 (Drosophila melanogaster, UniProt P16621); assay: Dephosphorylation of phosphotyrosine peptides (malachite green), DLAR D1D2; type: biochemical; settings: for Km / Vmax / Kcat / Kcat/Km: 0.01 µM protein; for Km / Kcat / Kcat/Km: 25 mM citrate pH 6.0, 15 min at 25°C, malachite green; for Vmax: 25 mM citrate buffer pH 6.0, 100 mM NaCl, 2 mM DTT, 15 min at 25°C, Biomol Green, 650 nm, Michaelis-Menten fit; for substrate preference: order of peptide substrates, DLAR D1D2
T1 construct: DLAR 1448-2029; His tag (pET-15b or pET-22b); made in house; host or cells: E. coli BL21(DE3)
T1 sequence (P16621 1448-2029): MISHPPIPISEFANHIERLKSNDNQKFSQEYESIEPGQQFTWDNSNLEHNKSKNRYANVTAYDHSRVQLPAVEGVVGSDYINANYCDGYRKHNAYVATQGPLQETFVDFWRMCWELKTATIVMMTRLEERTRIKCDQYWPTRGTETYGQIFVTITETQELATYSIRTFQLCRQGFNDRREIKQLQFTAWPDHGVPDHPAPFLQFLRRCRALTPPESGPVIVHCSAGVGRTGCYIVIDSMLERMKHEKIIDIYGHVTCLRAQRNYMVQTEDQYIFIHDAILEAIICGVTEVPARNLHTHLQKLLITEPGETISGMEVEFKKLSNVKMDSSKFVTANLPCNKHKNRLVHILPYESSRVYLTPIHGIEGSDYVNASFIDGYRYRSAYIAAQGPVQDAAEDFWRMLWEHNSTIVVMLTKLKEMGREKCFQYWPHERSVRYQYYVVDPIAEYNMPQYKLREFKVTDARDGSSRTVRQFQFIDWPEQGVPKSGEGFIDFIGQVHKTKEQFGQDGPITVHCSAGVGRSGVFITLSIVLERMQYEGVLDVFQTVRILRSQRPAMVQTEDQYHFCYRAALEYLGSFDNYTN
Description: (§1) Substrates of PTPs characterized thus far include the activation loop segments of various kinases and regulatory loops of other signaling proteins. Suitably designed peptide substrates mimic the physiologically relevant substrates of PTPs. In the present study, peptide substrates were designed for DLAR for which more information was available on its interacting partners. […] The five peptides were chosen based on their distinct charge distributions around the central phosphotyrosine residue. The phosphorylated as well as non-phosphorylated peptides were obtained from GL Bioscience, China. The peptides were >95% pure and were used after a single round of desalting using a Sephadex G25 column (GE Healthcare). The concentration of the peptide samples for biochemical studies was ascertained by UV absorption at 268 nm for the pY residue.
(§2) Phosphatase activity of the recombinant PTP domains was determined by using para-Nitrophenylphosphate (pNPP), a small molecule generic substrate, as well as phosphotyrosine containing peptides. The pNPP assay was performed as reported previously, with a modification in the buffer composition (25 mM Citrate, Glycine and HEPES (CGH), pH 6.5, 100 mM NaCl and 2 mM DTT). Phosphatase activity with the phosphotyrosine peptides was ascertained by the malachite green reaction as described for PTPs previously. Briefly, the reaction mixture comprised of 0.01 µM protein incubated with increasing concentrations of different peptides in 25 mM citrate buffer pH 6.0, 100 mM NaCl and 2 mM DTT for 15 min at 25°C. The reaction was stopped by the addition of the Biomol Green reagent (Enzo Life Sciences) and the colour developed after 20 min was quantified at 650 nm. For all the assays, kinetic constants for the steady state catalysis were obtained by fitting the reaction curves to the Michaelis-Menten equation using the nonlinear regression module of Sigma plot software (Systat Software, Inc.).

PTP99A D1 [1] = biological target: T2, PTP99A D1 (Drosophila melanogaster, UniProt P35832); assay: Phosphatase assay using pNPP, PTP99A D1; type: biochemical; set-up: PTP99A 450-756; His tag (pET-15b or pET-22b); made in house; host or cells: E. coli BL21(DE3); settings: CGH buffer pH 6.5, 100 mM NaCl, 2 mM DTT
T2 sequence (P35832 450-756): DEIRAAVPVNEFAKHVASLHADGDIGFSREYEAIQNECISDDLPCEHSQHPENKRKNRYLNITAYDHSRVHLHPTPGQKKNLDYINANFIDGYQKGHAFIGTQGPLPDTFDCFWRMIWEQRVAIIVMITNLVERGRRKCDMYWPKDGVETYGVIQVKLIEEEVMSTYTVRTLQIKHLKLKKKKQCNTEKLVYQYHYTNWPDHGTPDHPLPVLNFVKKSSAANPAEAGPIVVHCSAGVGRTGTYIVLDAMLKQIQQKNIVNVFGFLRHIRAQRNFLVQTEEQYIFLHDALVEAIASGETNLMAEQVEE
Method: as §2
The tandem PTP domains of PTP99A (PTP99A D1D2) and DLAR (DLAR D1D2) , the individual PTP domains (D1 and D2) as well as the active site mutants were expressed in E. coli and were purified using the protocols described earlier (Figure 1a, Figure S1a, b & c). […]

PTP99A D1 [2] = biological target: T2, PTP99A D1; assay: Dephosphorylation of phosphotyrosine peptides (malachite green), PTP99A D1; settings: for Vmax / Kcat / Kcat/Km / Km: 0.01 µM protein; for Vmax: 25 mM citrate buffer pH 6.0, 100 mM NaCl, 2 mM DTT, 15 min at 25°C, Biomol Green, 650 nm, Michaelis-Menten fit; for Kcat / Kcat/Km / Km: 25 mM citrate pH 6.0, 15 min at 25°C, malachite green; for peptide preference: order of peptide substrates
Description: as §1, §2

PTP99A D2 = biological target: T3, PTP99A D2 (Drosophila melanogaster, UniProt P35832); assay: Peptide preference of the PTP99A D2 domain from ratios of kcat/Km (D1D2 vs D1); type: biochemical; settings: order of peptide substrates, from comparison of kcat/Km of D1D2 with D1
T3 sequence (P35832 740-1050): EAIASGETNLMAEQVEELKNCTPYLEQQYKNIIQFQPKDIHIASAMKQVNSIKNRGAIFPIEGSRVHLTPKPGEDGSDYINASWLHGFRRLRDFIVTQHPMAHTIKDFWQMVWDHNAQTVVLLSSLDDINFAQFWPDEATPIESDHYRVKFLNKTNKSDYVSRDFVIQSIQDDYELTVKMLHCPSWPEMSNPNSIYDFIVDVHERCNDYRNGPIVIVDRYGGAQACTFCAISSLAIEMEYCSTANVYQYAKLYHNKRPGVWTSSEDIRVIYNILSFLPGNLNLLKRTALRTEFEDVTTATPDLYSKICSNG
Method: as §2
The difference between the most and least preferred substrate in the case of DLAR D1D2 was much less (∼16.0×10^4 sec^−1 M^−1 between Cuticle and Myospheroid peptides) when compared to DLAR D1 alone (∼130.0×10^4 sec^−1 M^−1 between Insulin Receptor and Abelson peptides). […] A more comprehensive study of this activation mechanism is being reported elsewhere.

Compound	Km (DLAR D1D2) [µM]	Kcat (PTP99A D1 [1]) [s⁻¹]	Vmax (PTP99A D1 [1]; Michaelis-Menten fit)	Vmax (DLAR D1D2) [µmol/min/mg]	Kcat (DLAR D1D2) [s⁻¹]	Kcat/Km (DLAR D1D2)	Km (DLAR D1D2; read-out: Km) [µM]	substrate preference (DLAR D1D2)	Vmax (PTP99A D1 [2]) [µmol/min/mg]	Kcat (PTP99A D1 [2]) [s⁻¹]	Kcat/Km (PTP99A D1 [2])	Km (PTP99A D1 [2]) [µM]	peptide preference (PTP99A D1 [2]; PTP99A D1 domain)	peptide preference (PTP99A D2)	difference between the most and least preferred substrate (kcat/Km) (PTP99A D1 [2]; PTP99A D1 domain, between Abelson peptide and Insulin Receptor peptides) [M⁻¹ s⁻¹]
CC(C)C[C@H](NC(=O)[C@H](C)NC(=O)CNC(=O)[C@H](Cc1ccc(OP(=O)(O)O)cc1)NC(=O)[C@H](CC(=O)O)NC(=O)[C@@H]1CCCN1C(=O)[C@H](CCC(=O)O)NC(=O)[C@H](C)NC(=O)[C@@H](N)[C@@H](C)O)C(=O)N[C@@H](Cc1ccc(O)cc1)C(=O)N[C@@H](CCC(=O)O)C(=O)O [Cuticle peptide] (H-TAEPD[pY]GALYE-OH)	105 ± 12.4	–	–	–	–	–	–	–	–	–	–	–	–	–	–
O=[N+]([O-])c1ccc(OP(=O)(O)O)cc1 [pNPP, para-Nitrophenylphosphate]	–	0.14 ± 0.01	0.22 µmol/min/mg and 0.22 ± 0.01 µmol/min/mg	–	–	–	–	–	–	–	–	–	–	–	–
CDDS[pY]FGNKC (cysteine pairing not given here) [Myospheroid peptide, phosphotyrosine peptide CDDSpYFGNKC from PeptideMine server, obtained from GL Bioscience, >95% pure]	–	–	–	13.86 ± 0.39	16.53 ± 0.47	14.28 ± 0.05 x 10^4 sec^-1M^-1	116 ± 8.69	Cuticle peptide>Insulin receptor peptide>Nervous fingers peptide>Abelson peptide>Myospheroid peptide	2.72 ± 0.13	1.81 ± 0.08	20.40 ± 0.59 x 10^2 sec^-1M^-1	887 ± 102	Abelson peptide>Cuticle peptide>Nervous fingers peptide>Myospheroid peptide>Insulin receptor peptide	Nervous fingers peptide>Abelson peptide>Cuticle peptide>Myospheroid peptide>Insulin receptor peptide	–
RDDT[pY]TAHAG [Abelson peptide, phosphotyrosine peptide RDDTpYTAHAG from PeptideMine server, obtained from GL Bioscience, >95% pure]	–	–	–	3.39 ± 0.19	4.05 ± 0.22	17.96 ± 0.16 x 10^4 sec^-1M^-1	22.6 ± 4.88	Cuticle peptide>Insulin receptor peptide>Nervous fingers peptide>Abelson peptide>Myospheroid peptide	0.83 ± 0.05	0.55 ± 0.04	45.19 ± 0.29 x 10^2 sec^-1M^-1	122 ± 26.6	Abelson peptide>Cuticle peptide>Nervous fingers peptide>Myospheroid peptide>Insulin receptor peptide	Nervous fingers peptide>Abelson peptide>Cuticle peptide>Myospheroid peptide>Insulin receptor peptide	~3000
VIGD[pY]VCRLCK (cysteine pairing not given here) [Nervous Fingers peptide, phosphotyrosine peptide VIGDpYVCRLCK from PeptideMine server, obtained from GL Bioscience, >95% pure]	–	–	–	12.41 ± 0.68	14.79 ± 0.81	19.59 ± 0.11 x 10^4 sec^-1M^-1	75.5 ± 12.5	Cuticle peptide>Insulin receptor peptide>Nervous fingers peptide>Abelson peptide>Myospheroid peptide	4.42 ± 0.14	2.94 ± 0.10	21.61 ± 0.24 x 10^2 sec^-1M^-1	1360 ± 94.7	Abelson peptide>Cuticle peptide>Nervous fingers peptide>Myospheroid peptide>Insulin receptor peptide	Nervous fingers peptide>Abelson peptide>Cuticle peptide>Myospheroid peptide>Insulin receptor peptide	–
